Structures are written as SMILES. pIC50: −log10 of the molar value. In brackets after ≈: the same amount, converted by molar mass. Activity calls are given as the source filed them.

In one data set the test system is Escherichia coli. As to the kind of experiment: microbe, parasite or virus in culture. To be noted: NCIM 5051.
The test system of the next data set is Staphylococcus aureus. As to the kind of experiment: microbe, parasite or virus in culture. To be noted: NCIM 2079.
Another data set deals with Bacillus subtilis. As to the kind of experiment: Antimicrobial activity against Bacillus subtilis NCIM 2439 by disc-diffusion method. Type of data set: functional.
The next data set has as its system Pseudomonas aeruginosa. As to the kind of experiment: microbe, parasite or virus in culture. The note with it: ATCC 10145.
For the next data set, the system named is Aspergillus niger. As to the kind of experiment: Antimicrobial activity against Aspergillus niger NCIM 1196 by agar diffusion method. Type of data set: functional. For orientation: In agar diffusion tests the substance spreads into inoculated agar from a disc or well.
The subject of a further data set is Candida albicans. As to the kind of experiment: Antimicrobial activity against Candida albicans NCIM 3471 by agar diffusion method. Type of data set: functional.
Data set [1] relates to Mus musculus. As to the kind of experiment: Neurotoxicity in mouse assessed as minimal motor impairment at 100 mg/kg, ip measured at 4 hr by rotarod test. Further details: dose 100 mg/kg, route intraperitoneal. Type of data set: toxicity, organism-based. To be noted: in vivo.
Data set [2] relates to Human immunodeficiency virus 2. As to the kind of experiment: Antiviral activity against HIV-2 ROD infected in MT4 cells assessed as inhibition of virus-induced cytopathicity. Type of data set: functional, organism-based. The note with it: Human immunodeficiency virus 2, ISOLATE ROD.
For data set [3], the system named is Mus musculus. As to the kind of experiment: Anticonvulsant activity in mouse assessed as protection against clonic seizure at 100 mg/kg, ip measured at 0.25 hr. Type of data set: functional.
In data set [4] the test system is Mus musculus. As to the kind of experiment: Neurotoxicity in mouse assessed as minimal motor impairment at 100 mg/kg, ip measured at 1 hr by rotarod test. Also on record: dose 100 mg/kg, route intraperitoneal. Type of data set: toxicity, organism-based. To be noted: in vivo.
In data set [5] the test system is Mus musculus. As to the kind of experiment: Neurotoxicity in mouse assessed as minimal motor impairment at 100 mg/kg, ip measured at 0.5 hr by rotarod test. Also on record: dose 100 mg/kg, route intraperitoneal. Type of data set: toxicity, organism-based. The note with it: in vivo. On the technique in general: The rotarod test checks motor coordination on a turning rod.

Data set [6] relates to Mus musculus. As to the kind of experiment: Neurotoxicity in mouse assessed as minimal motor impairment at 100 mg/kg, ip measured at 2 hr by rotarod test. Type of data set: toxicity, organism-based. Further details: dose 100 mg/kg, route intraperitoneal. The note with it: in vivo.
In data set [7] the test system is Mus musculus. As to the kind of experiment: Anticonvulsant activity in mouse assessed as protection against clonic seizure at 100 mg/kg, ip measured at 4 hr. Type of data set: functional, organism-based. Also on record: dose 100 mg/kg.
Data set [8] relates to Mus musculus. As to the kind of experiment: Anticonvulsant activity in mouse assessed as protection against clonic seizure at 100 mg/kg, ip measured at 2 hr. Type of data set: functional, organism-based. Also on record: dose 100 mg/kg.
Data set [9] is described as follows: Cytotoxicity against mock-infected human MT4 cells assessed as decrease in cell viability by MTT assay. Type of data set: cell-based. Background: Tetrazolium assays rely on reduction of a dye to a coloured formazan, in cell work by metabolically active cells.
Data set [10] relates to Human immunodeficiency virus 1. As to the kind of experiment: Antiviral activity against HIV-1 3B infected in MT4 cells assessed as protection against virus-induced cytopathicity relative to control. Type of data set: functional. The note with it: Human immunodeficiency virus 1, 3B.
For data set [11], the system named is Mus musculus. As to the kind of experiment: Neurotoxicity in mouse assessed as minimal motor impairment at 100 mg/kg, ip measured at 0.25 hr by rotarod test. Type of data set: toxicity, organism-based. Further details: dose 100 mg/kg, route intraperitoneal. The note with it: in vivo.
The test system of data set [12] is Human immunodeficiency virus 1. As to the kind of experiment: Antiviral activity against HIV-1 3B infected in MT4 cells assessed as inhibition of virus-induced cytopathicity. Type of data set: functional, organism-based. The note with it: Human immunodeficiency virus 1, 3B.
In data set [13] the test system is Human immunodeficiency virus 2. As to the kind of experiment: Antiviral activity against HIV-2 ROD infected in MT4 cells assessed as protection against virus-induced cytopathicity relative to control. Type of data set: functional. To be noted: Human immunodeficiency virus 2, ISOLATE ROD.
Data set [14] concerns Mus musculus. As to the kind of experiment: Anticonvulsant activity in mouse assessed as protection against clonic seizure at 100 mg/kg, ip measured at 1 hr. Type of data set: functional.
Data set [15] concerns Mus musculus. As to the kind of experiment: Anticonvulsant activity in mouse assessed as protection against clonic seizure at 100 mg/kg, ip measured at 0.5 hr. Type of data set: functional.

Description for Escherichia coli: Antimicrobial activity against Escherichia coli NCIM 5051 by disc-diffusion method
Description for Staphylococcus aureus: Antimicrobial activity against Staphylococcus aureus NCIM 2079 by disc-diffusion method

Regarding `O=C(O)c1cn(C2CC2)c2cc(N3CCNCC3)c(F)cc2c1=O` [CIPROFLOXACIN], the MBC with Escherichia coli worked out at 4 µg/mL (≈ 12.1 µM); against Staphylococcus aureus it was 8 µg/mL (≈ 24.1 µM); in the data set with Bacillus subtilis, 8 µg/mL (≈ 24.1 µM); against Pseudomonas aeruginosa it was 8 µg/mL (≈ 24.1 µM). Also, the MIC in the data set with Staphylococcus aureus, in the data set with Bacillus subtilis and against Pseudomonas aeruginosa was 4 µg/mL (≈ 12.1 µM) in each case.
As a reminder, the MFC is the smallest concentration meeting the test's criterion for killing the fungus. In the data set with Aspergillus niger, `OC(Cn1cncn1)(Cn1cncn1)c1ccc(F)cc1F` [FLUCONAZOLE] registered an MFC of 2 µg/mL (≈ 6.53 µM) and an MIC of 2 µg/mL (≈ 6.53 µM). In the data set with Candida albicans, this molecule showed an MFC of 2 µg/mL (≈ 6.53 µM) and an MIC of 1 µg/mL (≈ 3.27 µM).
As usually defined, the pIC50 is the IC50 on a negative log10 scale, so that one unit is a factor of ten. The CC50 is the concentration at which the toxic effect on the cells reaches its halfway point. The term Emax denotes the size of the effect at its maximum, as opposed to the concentration needed. Take `COc1cc2c(cc1OC)C1=NN(C(=O)Nc3ccc(Cl)cc3)C(c3ccc(F)cc3)C1C2` (stereo unspecified): the Activity entry in the data set on Mus musculus [1] was “Non-toxic”; with Mus musculus [3] (route intraperitoneal), 100%; in the data set with Mus musculus [4], “Non-toxic”; in the data set on Mus musculus [5], “Non-toxic”; in the data set on Mus musculus [6] it was “Non-toxic”; in the data set with Mus musculus [11], “Non-toxic”. Besides, the Activity in the data set on Mus musculus [14] (route intraperitoneal) came to 75%; with Mus musculus [15] (route intraperitoneal) it was 100%. Moreover, the pIC50 in [2] and in [12] was under 4.59 each time. Also, the outcome with Mus musculus [7] and in the data set with Mus musculus [8] was inactive. For the same molecule, the CC50 in data set [9] worked out at 25.8 µM. Moreover, the Emax in data set [10] and in data set [13] was 2% in each case.
For `COc1cc2c(cc1OC)C1=NN(C(=O)Nc3ccc(F)c(Cl)c3)C(c3ccc(F)cc3)C1C2` (stereo unspecified), the Activity result in the data set on Mus musculus [1], in the data set with Mus musculus [4], with Mus musculus [5], in the data set on Mus musculus [6] and in the data set on Mus musculus [11] was “Non-toxic” in each case. Moreover, the negative logarithm of the IC50 (pIC50) in [2] and in [12] was under 3.75 each time. The result in the data set with Mus musculus [3], with Mus musculus [7], with Mus musculus [8], with Mus musculus [14] and with Mus musculus [15] was inactive. In addition, in [9], the cytotoxic concentration (CC50) came out at 179 µM. The Emax was determined as 2% in [10] and 7% in data set [13].

These data come from ChEMBL document CHEMBL2203270, “POMA analyses as new efficient bioinformatics' platform to predict and optimise bioactivity of synthesized 3a,4-dihydro-3H-indeno[1,2-c]pyrazole-2-carboxamide/carbothioamide analogues” (Bioorg Med Chem Lett, 2012).
